# Literature values, collected in patent US11337939B2 (PULMONEM INC., priority 2020, dated 2022).
# Legend:
# airway inflammation = conditions: ferret
# [1] = test system: human bronchial epithelial cells; conditions: stimulated with lipopolysaccharide
smiles,measurement,setting,value
"Nc1ccc(S(=O)(=O)c2ccc(N)cc2)cc1 [Dapsone, 4,4′-diaminodiphenyl sulfone]",absorbed from the gastrointestinal tract,from the gastrointestinal tract,70%-80%
same,time to peak serum concentration,serum,2 to 6 h
same,airway inflammation,airway inflammation,resolves airway inflammation
same,IL-8 secretion,[1],inhibits IL-8 secretion
